Consider 13 molecules from patent US20100093706A1, “MULTIMEDIATOR TRANSPORTER INHIBITORS FOR USE IN TREATMENT OF CENTRAL NERVOUS SYSTEM DISORDERS” (priority 2006, published 2010).

Entries after “also recorded” stand apart in the source; their conditions may differ. Some results are limits rather than exact numbers.

The target in one data set is T1, DAT (h) (Homo sapiens, UniProt Q01959).
T1 construct: expressed in transfected cells
Briefly: cell-based. Particulars: human; nM; read-out: DAT (h) in vitro functional uptake. The data set is classed as cell-based. As to the method: (§1) Functional activity of the compounds was determined in vitro in cellular assays using recombinant human cell lines.

In a further data set the target is T2, NET (h) (Homo sapiens, UniProt P23975).
T2 construct: expressed in transfected cells; host or cells: MDCK
Briefly: cell-based. It is filed as cell-based. Particulars: human; nM; read-out: NET (h) in vitro functional uptake. As to the method: as §1

A further data set addresses T3, 5-HT (h) (Homo sapiens, UniProt P31645).
T3 construct: expressed in transfected cells; host or cells: HEK-293
Briefly: cell-based. It is filed as cell-based. The following applies: human; nM; read-out: 5-HT (h) in vitro functional uptake. As to the method: as §1

In a further data set the test system is Sprague-Dawley rats. Description: 7 day multidose oral dosing toxicology study. The data set is classed as in vivo, rat. Particulars: for 7 day multidose oral toxicology, symptoms: Sprague-Dawley rats n = 6 (3M/3F). An excerpt: The representative results are listed below in Table VI.

T1 sequence (Q01959 whole entry): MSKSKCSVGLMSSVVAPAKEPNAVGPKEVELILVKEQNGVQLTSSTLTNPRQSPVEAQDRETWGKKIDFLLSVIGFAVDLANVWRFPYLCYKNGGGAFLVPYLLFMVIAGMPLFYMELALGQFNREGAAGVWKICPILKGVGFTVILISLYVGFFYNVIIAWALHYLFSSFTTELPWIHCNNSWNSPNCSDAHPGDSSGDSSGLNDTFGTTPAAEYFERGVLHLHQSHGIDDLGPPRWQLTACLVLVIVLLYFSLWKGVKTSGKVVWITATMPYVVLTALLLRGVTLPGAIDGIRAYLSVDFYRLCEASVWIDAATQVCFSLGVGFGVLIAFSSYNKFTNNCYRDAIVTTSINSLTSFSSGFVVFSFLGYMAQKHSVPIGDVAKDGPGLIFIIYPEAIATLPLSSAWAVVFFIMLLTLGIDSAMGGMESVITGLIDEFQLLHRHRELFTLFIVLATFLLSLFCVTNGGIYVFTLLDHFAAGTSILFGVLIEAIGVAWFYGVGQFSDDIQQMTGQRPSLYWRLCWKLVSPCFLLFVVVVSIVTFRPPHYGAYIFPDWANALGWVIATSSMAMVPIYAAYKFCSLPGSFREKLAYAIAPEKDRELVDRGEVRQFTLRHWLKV
T3 sequence (P31645 whole entry): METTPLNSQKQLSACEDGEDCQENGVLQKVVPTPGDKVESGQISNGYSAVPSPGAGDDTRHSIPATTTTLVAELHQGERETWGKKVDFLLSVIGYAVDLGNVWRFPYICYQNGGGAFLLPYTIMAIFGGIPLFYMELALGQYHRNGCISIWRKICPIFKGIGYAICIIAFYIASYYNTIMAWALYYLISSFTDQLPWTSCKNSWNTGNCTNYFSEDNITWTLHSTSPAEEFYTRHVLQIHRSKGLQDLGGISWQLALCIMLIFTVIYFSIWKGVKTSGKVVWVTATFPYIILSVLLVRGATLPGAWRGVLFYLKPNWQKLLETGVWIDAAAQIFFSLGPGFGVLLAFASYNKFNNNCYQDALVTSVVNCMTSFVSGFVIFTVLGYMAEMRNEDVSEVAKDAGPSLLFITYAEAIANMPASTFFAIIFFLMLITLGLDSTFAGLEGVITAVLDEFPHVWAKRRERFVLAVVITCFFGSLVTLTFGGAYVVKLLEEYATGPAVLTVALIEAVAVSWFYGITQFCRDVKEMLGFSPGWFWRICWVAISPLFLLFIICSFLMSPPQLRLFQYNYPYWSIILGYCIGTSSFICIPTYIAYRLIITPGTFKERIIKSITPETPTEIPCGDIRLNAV
T2 sequence (P23975 whole entry): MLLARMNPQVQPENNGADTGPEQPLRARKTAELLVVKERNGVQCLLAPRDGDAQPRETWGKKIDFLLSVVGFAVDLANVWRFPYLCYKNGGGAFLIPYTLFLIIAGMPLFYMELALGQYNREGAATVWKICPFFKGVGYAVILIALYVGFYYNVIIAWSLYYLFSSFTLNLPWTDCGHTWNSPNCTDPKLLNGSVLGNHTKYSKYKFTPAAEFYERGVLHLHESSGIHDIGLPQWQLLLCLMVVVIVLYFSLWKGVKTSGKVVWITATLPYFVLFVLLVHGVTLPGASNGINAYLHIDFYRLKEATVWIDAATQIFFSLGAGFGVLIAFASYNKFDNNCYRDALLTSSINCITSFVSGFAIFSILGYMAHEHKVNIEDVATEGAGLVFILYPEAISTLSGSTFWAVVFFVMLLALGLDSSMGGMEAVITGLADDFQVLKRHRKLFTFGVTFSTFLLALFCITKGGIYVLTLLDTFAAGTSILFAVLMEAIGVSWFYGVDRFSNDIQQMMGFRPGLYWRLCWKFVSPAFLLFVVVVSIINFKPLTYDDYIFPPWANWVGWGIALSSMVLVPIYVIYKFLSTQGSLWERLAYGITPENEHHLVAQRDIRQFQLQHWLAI

In the case of `C[C@@H]1[C@H](COc2ccc(C(F)(F)F)cc2)CCCN1CC(O)C1(c2ccc(Cl)cc2)CCC1` (stereo partly drawn) [(6′)], the EC50 on DAT (h) and on NET (h) was 3 nM in each case.
With `C[C@H]1CC[C@@H](COc2ccc(C(F)(F)F)cc2)CN1CC1(c2ccc(Cl)cc2)CCC1` [(13), (2S,5R)-1-{[1-(4-Chlorophenyl)cyclobutyl]methyl}-2-methyl-5-{[4-(trifluoromethyl)phenoxy]methyl}piperidine], the EC50 on DAT (h) was under 1 nM; at 5-HT (h) it was over 2000 nM; on NET (h), 100 nM.
`C[C@H]1CCN(CC2(c3ccc(Cl)cc3)CCC2)C[C@@H]1COc1ccc(C(F)(F)F)cc1` [(14), (3R,4S)-1-{[1-(4-Chlorophenyl)cyclobutyl]methyl}-4-methyl-3-{[4-(trifluoromethyl)phenoxy]methyl}piperidine]: the EC50 on DAT (h) is under 1 nM; on 5-HT (h), over 2000 nM; at NET (h) it was 150 nM.
For the molecule `C[C@@H]1CCN(CC2(c3ccc(Cl)cc3)CCC2)C[C@H]1COc1ccc(C(F)(F)F)cc1` [(15), (3S,4R)-1-{[1-(4-Chlorophenyl)cyclobutyl]methyl}-4-methyl-3-{[4-(trifluoromethyl)phenoxy]methyl}piperidine], the EC50 was under 1 nM at DAT (h), over 2000 nM on 5-HT (h) and 350 nM on NET (h).
Regarding `C[C@H]1CCN(CC2(c3ccc(Cl)cc3)CCC2)C[C@H]1COc1ccc(C(F)(F)F)cc1` [(16), (3S,4S)-1-{[1-(4-Chlorophenyl)cyclobutyl]methyl}-4-methyl-3-{[4-(trifluoromethyl)phenoxy]methyl}piperidine], the EC50 at DAT (h) is under 1 nM; at 5-HT (h), over 2000 nM; on NET (h), 100 nM.
As for `C[C@H]1CC[C@@H](COc2ccc(C(F)(F)F)cc2)CN1C[C@@H](O)C1(c2ccc(Cl)cc2)CCC1` [(17), (S)-1-[1-(4-Chlorophenyl)cyclobutyl]-2-{(2S,5R)-2-methyl-5-[4-(trifluoromethyl)phenoxy]methyl}piperidin-1-ylethanol], the EC50 was 1 nM at DAT (h), over 2000 nM on 5-HT (h) and 5 nM at NET (h).
`C[C@H]1CC[C@@H](COc2ccc(C(F)(F)F)cc2)CN1C[C@H](O)C1(c2ccc(Cl)cc2)CCC1` [(18), (R)-1-[1-(4-Chlorophenyl)cyclobutyl]-2-{(2S,5R)-2-methyl-5-[4-(trifluoromethyl)phenoxy]methyl}piperidin-1-ylethanol]: the EC50 at DAT (h) is 1 nM; on 5-HT (h), over 2000 nM; on NET (h) it was 2 nM.
As to `C[C@@H]1CC[C@H](COc2ccc(C(F)(F)F)cc2)CN1C[C@H](O)C1(c2ccc(Cl)cc2)CCC1` [(19), (R)-1-[1-(4-Chlorophenyl)cyclobutyl]-2-{(2R,5S)-2-methyl-5-[4-(trifluoromethyl)phenoxy]methyl}piperidin-1-ylethanol], the values for the EC50 on DAT (h), on 5-HT (h) and on NET (h) were 1 nM, over 2000 nM and 9 nM, respectively.
As for `C[C@@H]1CC[C@H](COc2ccc(C(F)(F)F)cc2)CN1C[C@@H](O)C1(c2ccc(Cl)cc2)CCC1` [(20), (S)-1-[1-(4-Chlorophenyl)cyclobutyl]-2-{(2R,5S)-2-methyl-5-[4-(trifluoromethyl)phenoxy]methyl}piperidin-1-ylethanol], the EC50 stood at 1 nM on DAT (h), 20 nM at 5-HT (h) and 2 nM at NET (h).
For the molecule `C[C@@H]1CC[C@@H](COc2ccc(C(F)(F)F)cc2)CN1C[C@@H](O)C1(c2ccc(Cl)cc2)CCC1` [(21), (S)-1-[1-(4-Chlorophenyl)cyclobutyl]-2-{(2R,5R)-2-methyl-5-[4-(trifluoromethyl)phenoxy]methyl}-piperidin-1-ylethanol], the EC50 on DAT (h) was 1 nM; at 5-HT (h) it was 10 nM; on NET (h) it was 5 nM.
As to `CC(C)C[C@@H](N)C1(c2ccc(Cl)cc2)CCC1` [R-DDMS, reference compound], the EC50 on DAT (h) stood at 100 nM; on 5-HT (h) it was 1500 nM; on NET (h), 200 nM.
Turning to `CN[C@H](CC(C)C)C1(c2ccc(Cl)cc2)CCC1` [R-DMS, reference compound], the results for the EC50 on DAT (h), at 5-HT (h) and on NET (h) were 30 nM, 1500 nM and 300 nM, respectively.
Consider `CC(C)CC(N(C)C)C1(c2ccc(Cl)cc2)CCC1` (stereo not drawn) [Sibutramine], for which, in the data set on Sprague-Dawley rats (oral 100 mg/kg/day, 100 mg/kg/day), the “7 day multidose oral toxicology, symptoms” value is on record as “decreased grip strength, depression”. Also, in the data set with Sprague-Dawley rats (oral 400 mg/kg/day, 400 mg/kg/day), the “7 day multidose oral toxicology, symptoms” value is “convulsions; also recorded: Convulsions;”. For the same molecule, in the data set on Sprague-Dawley rats (n = 6, oral 200 mg/kg/day), the “7 day multidose oral toxicology, deaths” value is given as 2 deaths and the “7 day multidose oral toxicology, self-mutilation (number of animals)” value is given as 6 self-mutilation.
